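Where inhibition never reached the appropriate level, the endpoint shown equals the highest concentration tested. Otherwise, values were interpolated linearly from a five-concentration, 48-hour dose response in 96-well plates. The concentration for 50% growth inhibition is given as GI50.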 The source made the active and inactive calls. Cut-off read from the data, not from the text of the source: active = GI50 up to about 1.1 µM and inactive = higher.
Columns and labels:
Test in all cases: inhibition of tumour cell growth, NCI panel, 48 h
SN12C = test system: SN12C
HCT-15 = test system: HCT-15
SK-MEL-28 = test system: SK-MEL-28
MOLT-4 = test system: MOLT-4
SF-295 = test system: SF-295
HOP-62 = test system: HOP-62
DMS-273 = test system: DMS-273
M19-MEL = test system: M19-MEL
SK-OV-3 = test system: SK-OV-3
OVCAR-4 = test system: OVCAR-4
IGROV-1 = test system: IGROV-1
SK-MEL-2 = test system: SK-MEL-2
K562 = test system: K562
DLD-1 = test system: DLD-1
SK-MEL-5 = test system: SK-MEL-5
NCI-H226 = test system: NCI-H226
OVCAR-8 = test system: OVCAR-8
SR = test system: SR
HL-60 = test system: HL-60
786-0 = test system: 786-0
A498 = test system: A498
EKVX = test system: EKVX
KM-20L2 = test system: KM-20L2
RPMI-8226 = test system: RPMI-8226
OVCAR-5 = test system: OVCAR-5
SF-268 = test system: SF-268
Malme-3M = test system: Malme-3M
SNB-19 = test system: SNB-19
UO-31 = test system: UO-31
HCT-116 = test system: HCT-116
ACHN = test system: ACHN
LXFL 529 = test system: LXFL 529
NCI-H522 = test system: NCI-H522
M14 = test system: M14
DMS-114 = test system: DMS-114
NCI-H460 = test system: NCI-H460
HT-29 = test system: HT-29
TK-10 = test system: TK-10
UACC-62 = test system: UACC-62
OVCAR-3 = test system: OVCAR-3
LOX IMVI = test system: LOX IMVI
CCRF-CEM = test system: CCRF-CEM
KM12 = test system: KM12
NCI-H23 = test system: NCI-H23
A549 = test system: A549
UACC-257 = test system: UACC-257
U-251 = test system: U-251
COLO 205 = test system: COLO 205
HCC 2998 = test system: HCC 2998
CAKI-1 = test system: CAKI-1
SW-620 = test system: SW-620
SNB-75 = test system: SNB-75
HOP-92 = test system: HOP-92
RXF 393 = test system: RXF 393
XF498 = test system: XF498
SNB-78 = test system: SNB-78
SF-539 = test system: SF-539
HOP-18 = test system: HOP-18

In the case of `O=C1[C@H](Cl)[C@H]2c3cc4ccccc4nc3Oc3ccccc3N12`, the GI50 (SN12C) is reported as 43.4 µM (inactive), the GI50 (HCT-15) is reported as 43 µM and the GI50 (SK-MEL-28) is reported as 33 µM (inactive). For the same molecule, the GI50 (MOLT-4) was 27.7 µM (inactive), the GI50 (SF-295) was 21.8 µM (inactive) and the GI50 (HOP-62) was 35.4 µM (inactive). The GI50 (DMS-273) was 33.3 µM (inactive), the GI50 (M19-MEL) was 34.8 µM (inactive) and the GI50 (SK-OV-3) was 45.5 µM (inactive). The GI50 (OVCAR-4) was 45.5 µM (inactive), the GI50 (IGROV-1) was 32.7 µM (inactive) and the GI50 (SK-MEL-2) was 36.5 µM (inactive). The GI50 (K562) was > 10 µM (inactive), the GI50 (DLD-1) was 84.9 µM (inactive) and the GI50 (SK-MEL-5) was 30.9 µM (inactive). The GI50 (NCI-H226) was 75.9 µM (inactive), the GI50 (OVCAR-8) was 51.3 µM (inactive) and the GI50 (SR) was 20.9 µM (inactive). The GI50 (HL-60) was 25.5 µM (inactive), the GI50 (786-0) was 36.8 µM (inactive) and the GI50 (A498) was 42.9 µM (inactive). For the same molecule, the GI50 (EKVX) was 81.8 µM (inactive), the GI50 (KM-20L2) was 43.4 µM (inactive) and the GI50 (RPMI-8226) was 22.6 µM (inactive). For the same molecule, the GI50 (OVCAR-5) was 67.3 µM (inactive), the GI50 (SF-268) was 25.8 µM (inactive) and the GI50 (Malme-3M) was 49.4 µM (inactive). For the same molecule, the GI50 (SNB-19) was 46.8 µM (inactive), the GI50 (UO-31) was 14.9 µM (inactive) and the GI50 (HCT-116) was 17.2 µM (inactive). For the same molecule, the GI50 (ACHN) was 28.4 µM (inactive), the GI50 (LXFL 529) was 34 µM (inactive) and the GI50 (NCI-H522) was 24.3 µM (inactive). For the same molecule, the GI50 (M14) was 76.9 µM (inactive), the GI50 (DMS-114) was 20.9 µM (inactive) and the GI50 (NCI-H460) was 53.7 µM (inactive). For the same molecule, the GI50 (HT-29) was 69.8 µM (inactive), the GI50 (TK-10) was > 100 µM (inactive) and the GI50 (UACC-62) was 18.3 µM (inactive). For the same molecule, the GI50 (OVCAR-3) was 48.4 µM (inactive), the GI50 (LOX IMVI) was 36.7 µM (inactive) and the GI50 (CCRF-CEM) was 61 µM (inactive). For the same molecule, the GI50 (KM12) was 33.3 µM (inactive), the GI50 (NCI-H23) was 35.1 µM (inactive) and the GI50 (A549) was 33.5 µM (inactive). For the same molecule, the GI50 (UACC-257) was 50.4 µM (inactive), the GI50 (U-251) was 30.9 µM (inactive) and the GI50 (COLO 205) was 54.8 µM (inactive). For the same molecule, the GI50 (HCC 2998) was 39.4 µM (inactive), the GI50 (CAKI-1) was 38.7 µM (inactive) and the GI50 (SW-620) was > 100 µM (inactive). For the same molecule, the GI50 (SNB-75) was 1.4 µM (inactive).

With `CCN(CC)C(=O)C/C(C)=N/NC(=O)c1ccncc1` the GI50 (HOP-92) was > 100 µM (inactive), the GI50 (SK-MEL-28) was > 100 µM (inactive) and the GI50 (MOLT-4) was > 100 µM (inactive). For the same molecule, the GI50 (SF-295) was > 100 µM (inactive), the GI50 (HOP-62) was > 100 µM (inactive) and the GI50 (DMS-273) was > 100 µM (inactive). The GI50 (SK-OV-3) was > 100 µM (inactive), the GI50 (IGROV-1) was > 100 µM (inactive) and the GI50 (SK-MEL-2) was > 100 µM (inactive). For the same molecule, the GI50 (K562) was > 100 µM (inactive), the GI50 (DLD-1) was > 100 µM (inactive) and the GI50 (SK-MEL-5) was > 100 µM (inactive). For the same molecule, the GI50 (NCI-H226) was > 100 µM (inactive), the GI50 (OVCAR-8) was > 100 µM (inactive) and the GI50 (RXF 393) was > 100 µM (inactive). The GI50 (HL-60) was > 100 µM (inactive), the GI50 (786-0) was > 100 µM (inactive) and the GI50 (EKVX) was > 100 µM (inactive). The GI50 (KM-20L2) was > 100 µM (inactive), the GI50 (RPMI-8226) was > 100 µM (inactive) and the GI50 (XF498) was > 100 µM (inactive). The GI50 (OVCAR-5) was > 100 µM (inactive), the GI50 (SF-268) was > 100 µM (inactive) and the GI50 (Malme-3M) was > 100 µM (inactive). For the same molecule, the GI50 (UO-31) was > 100 µM (inactive), the GI50 (HCT-116) was > 100 µM (inactive) and the GI50 (LXFL 529) was > 100 µM (inactive). For the same molecule, the GI50 (NCI-H522) was > 100 µM (inactive), the GI50 (M14) was > 100 µM (inactive) and the GI50 (DMS-114) was > 100 µM (inactive). For the same molecule, the GI50 (NCI-H460) was > 100 µM (inactive), the GI50 (HT-29) was > 100 µM (inactive) and the GI50 (TK-10) was > 100 µM (inactive). For the same molecule, the GI50 (UACC-62) was > 100 µM (inactive), the GI50 (OVCAR-3) was > 100 µM (inactive) and the GI50 (LOX IMVI) was > 100 µM (inactive). For the same molecule, the GI50 (CCRF-CEM) was > 100 µM (inactive), the GI50 (KM12) was > 100 µM (inactive) and the GI50 (NCI-H23) was > 100 µM (inactive). For the same molecule, the GI50 (A549) was > 100 µM (inactive), the GI50 (SNB-78) was > 100 µM (inactive) and the GI50 (UACC-257) was > 100 µM (inactive). The GI50 (U-251) was > 100 µM (inactive), the GI50 (COLO 205) was > 100 µM (inactive) and the GI50 (HCC 2998) was > 100 µM (inactive). The GI50 (SW-620) was > 100 µM (inactive), the GI50 (SNB-75) was > 100 µM (inactive) and the GI50 (SF-539) was > 100 µM (inactive).

For `O=[N+]([O-])c1cccc(C2=NOC3CCCC23)c1` (stereo not drawn), the GI50 (SN12C) was > 100 µM (inactive), the GI50 (HOP-92) was > 100 µM (inactive) and the GI50 (HCT-15) was over 100 µM. For the same molecule, the GI50 (SK-MEL-28) was > 100 µM (inactive), the GI50 (MOLT-4) was > 100 µM (inactive) and the GI50 (SF-295) was > 100 µM (inactive). The GI50 (HOP-62) was > 100 µM (inactive), the GI50 (DMS-273) was > 100 µM (inactive) and the GI50 (HOP-18) was > 100 µM (inactive). The GI50 (M19-MEL) was > 100 µM (inactive), the GI50 (SK-OV-3) was > 100 µM (inactive) and the GI50 (OVCAR-4) was > 100 µM (inactive). For the same molecule, the GI50 (IGROV-1) was > 100 µM (inactive), the GI50 (SK-MEL-2) was > 100 µM (inactive) and the GI50 (K562) was > 100 µM (inactive). The GI50 (DLD-1) was > 100 µM (inactive), the GI50 (SK-MEL-5) was > 100 µM (inactive) and the GI50 (NCI-H226) was > 100 µM (inactive). The GI50 (OVCAR-8) was > 100 µM (inactive), the GI50 (HL-60) was > 100 µM (inactive) and the GI50 (786-0) was > 100 µM (inactive). For the same molecule, the GI50 (A498) was > 100 µM (inactive), the GI50 (EKVX) was > 100 µM (inactive) and the GI50 (RPMI-8226) was > 100 µM (inactive). The GI50 (OVCAR-5) was > 100 µM (inactive), the GI50 (SF-268) was > 100 µM (inactive) and the GI50 (Malme-3M) was > 100 µM (inactive). The GI50 (SNB-19) was 25.2 µM (inactive), the GI50 (UO-31) was > 100 µM (inactive) and the GI50 (HCT-116) was > 100 µM (inactive). For the same molecule, the GI50 (ACHN) was > 100 µM (inactive), the GI50 (LXFL 529) was > 100 µM (inactive) and the GI50 (NCI-H522) was > 100 µM (inactive). The GI50 (M14) was > 100 µM (inactive), the GI50 (DMS-114) was > 100 µM (inactive) and the GI50 (NCI-H460) was > 100 µM (inactive). The GI50 (HT-29) was > 100 µM (inactive), the GI50 (TK-10) was > 100 µM (inactive) and the GI50 (UACC-62) was > 100 µM (inactive). For the same molecule, the GI50 (OVCAR-3) was > 100 µM (inactive), the GI50 (CCRF-CEM) was > 100 µM (inactive) and the GI50 (KM12) was > 100 µM (inactive). For the same molecule, the GI50 (NCI-H23) was > 100 µM (inactive), the GI50 (A549) was > 100 µM (inactive) and the GI50 (SNB-78) was > 100 µM (inactive). The GI50 (UACC-257) was > 100 µM (inactive), the GI50 (U-251) was > 100 µM (inactive) and the GI50 (COLO 205) was > 100 µM (inactive). For the same molecule, the GI50 (HCC 2998) was > 100 µM (inactive), the GI50 (CAKI-1) was < 0.01 µM (active) and the GI50 (SW-620) was > 100 µM (inactive). For the same molecule, the GI50 (SNB-75) was > 100 µM (inactive) and the GI50 (SF-539) was > 100 µM (inactive).

From ChEMBL document CHEMBL1201862, “PubChem BioAssay data set” (2004)
